According to US20130315843A1, “COMPOSITION FOR REDUCTION OF TRPA1 AND TRPV1 SENSATIONS” (priority 2012, published 2013):

Assays:
[1] = molecular target: T1, human TRPV1 (Homo sapiens, UniProt Q8NER1); experiment: FLIPR Ca2+ assay, reduction of hydrogen peroxide activation of TRPV1; format: cell-based; parameters: expressed in transfected cells; conditions: for Ca++ counts: with compound
Procedure: (§1) Cells were detached with addition of 10 ml of PBS (phosphate buffered saline) by hand shaking gently. Cells were transferred to a 50 ml tube and centrifuged at 850 rpm for 3 minutes to remove PBS.
The pelleted cells were re-suspended in 10 ml assay buffer and 90 μl aliquots (˜50,000 cells) per well delivered to a 96-well assay plate containing 10 μl of test compounds (1 mM in assay buffer, […]) or buffer control and incubated at room temperature for 30 minutes.

[2] = molecular target: T1, human TRPV1; experiment: FLIPR Ca2+ assay, reduction of capsaicin activation of TRPV1; format: cell-based; parameters: expressed in transfected cells; conditions: for Ca++ counts: with compound
Procedure: as §1
(§2) The pelleted cells were re-suspended in 10 ml assay buffer and 90 μl aliquots (˜50,000 cells) per well delivered to a 96-well assay plate containing 10 μl of test compounds ([…]) or buffer control and incubated at room temperature for 30 minutes.

[3] = Trained sensory panel, burn sensation after brushing with menthol dentifrice; format: in vivo, human; parameters: key: 0 = no burning to 60 = highest intensity; 7.5 difference = significant; conditions: scale 0-60
Procedure: (§3) For EXAMPLES 6 and 7 sensory evaluation studies of menthol and hydrogen peroxide activity were conducted using a methodology patterned after the techniques described in M. C. Meilgaard, et al., Sensory Evaluation Techniques, 4th Ed. (2007). In one study, a panel of 8-15 trained sensory experts evaluated the menthol or peroxide sensations experienced after brushing with a dentifrice containing the menthol or hydrogen peroxide and the respective TRPA1 or TRPV1 antagonists. Panelists brushed teeth with 1.5 grams of a dentifrice (containing coolant) or control (no coolant) and then expectorated. After brush expectoration, panelists evaluated the burn intensity, assigning a number between 0 (no burning) to 60 ([…]). After rinse expectoration, panelists evaluated burning intensity according to the same 0 to 60 scale. Evaluations were conducted at 5, 15, 30, 45, 60 minute, etc. time points. At each evaluation, panelists were instructed to breathe in through pursed lips and evaluate overall burning sensation. In this test, a numerical score difference from the control of 7.5 indicates user significant differences or definite reduction in burning at the specified time point. Measures between 4.0 to 7.5 indicate a noticeable trend in the specified parameter, which is not statistically significant, but noticeable.
For EXAMPLE 6 (TABLES 8 and 9), a panel of 14 trained sensory experts evaluated the sensory profile experienced after brushing with the dentifrice sample formulations shown in TABLES 6 and 7 containing high levels of menthol followed by rinsing with water. Panelists brushed teeth with 1.5 grams of a test dentifrice (containing high menthol levels) or control (no menthol) for 36 seconds and then expectorated. The dentifrice sample formulations (control and high L-Menthol) are shown below in TABLE 6 (with peppermint flavor) and TABLE 7 (with spearmint flavor). The dentifrices were made using conventional methods and are shown below with component amounts in weight % of total composition. […]
For TABLE 10 all the Samples had the same formulation as Sample E from TABLE 6, except for the Control which lacked menthol. After brushing or mouthwash expectoration, panelists evaluated the burning sensation, assigning a number between 0 (no sensation) to 60 (highest intensity sensation). Evaluations were conducted at 5, 10, 20 and 30 minute time points, following expectoration. At each evaluation, panelists were instructed to breathe in through pursed lips and evaluate overall sensation. In this test, a numerical score of 7.5 indicates a significant user noticeable sensation. Differences less than 7.5, but greater than 5.0 indicate the trending of the data on a specific attribute.

[4] = Trained sensory panel, burning and numbing sensation after hydrogen peroxide mouthwash; format: in vivo, human; parameters: key to Burning Sensation: 0 = no sensation, 60 = highest intensity sensation; conditions: scale 0-60
Procedure: as §3
For EXAMPLE 7, a panel of 10 trained sensory experts evaluated the sensory profile experienced after rinsing with 30 grams of a test mouthwash (containing hydrogen peroxide and TRPA1 or TRPV1 antagonist) or control (containing hydrogen peroxide and no TRPA1 or TRPV1 antagonist) for 30 seconds and then expectorated. After expectoration, panelists evaluated the sensorial profile (cooling, warming, burning, numbing, and astringency), assigning a number between 0 (no sensation) to 60 (highest intensity sensation). Evaluations were conducted at 2.5, 5, 10, 20, and 30 minute time points, following expectoration at each evaluation, panelists were instructed to breathe in through pursed lips and evaluate overall burning or numbing sensation. The hydrogen peroxide containing mouthwash formulations are shown below in TABLE 11. The mouthwash samples tested comprised a control having the components listed in TABLE 11 by weight % of the composition or the control formulation plus TRPA1 or TRPV1 antagonist, as shown in TABLE 12. The mouthwashes were made using conventional methods and are shown below with amounts in weight % of total composition.

[5] = molecular target: human TRPA1 (Homo sapiens, UniProt O75762); experiment: FLIPR Ca2+ assay, reduction of hydrogen peroxide activation of TRPA1; format: cell-based; parameters: expressed in transfected cells
Procedure: After centrifugation, a pellet of cells was formed in the bottom of the tube separating them from the supernatant solution.
as §2

[6] = antagonist 400 μM against 500 μM hydrogen peroxide
[7] = antagonist 100 μM against 500 μM hydrogen peroxide
[8] = 5 Min After Rinse, dentifrice Sample E (1% menthol) with antagonist levels as E42
[9] = 10 Min After Rinse, dentifrice Sample E (1% menthol) with antagonist levels as E42
[10] = 20 Min After Rinse, dentifrice Sample E (1% menthol) with antagonist levels as E42
[11] = 30 Min After Rinse, dentifrice Sample E (1% menthol) with antagonist levels as E42
[12] = After Expectoration, dentifrice Sample E (1% added menthol) with Apritone 200 ppm, Dihydrojasmone 6 ppm, Isobornyl Isobutyrate 100 ppm, α-heptyl-γ-valerolactone 100 ppm as named
[13] = After Rinse, dentifrice Sample E (1% menthol) with antagonist levels as E42
[14] = 2 Min 30 SEC After Expectoration, H2O2 mouthwash, antagonist levels as E48
[15] = 5 Min After Expectoration, H2O2 mouthwash, antagonist levels as E48
[16] = 10 Min After Expectoration, H2O2 mouthwash, antagonist levels as E48
[17] = 20 Min After Expectoration, H2O2 mouthwash, antagonist levels as E48
[18] = 30 Min After Expectoration, H2O2 mouthwash, antagonist levels as E48
[19] = After Expectoration, H2O2 mouthwash, antagonist levels as E48
[20] = 400 μM antagonist vs 500 μM hydrogen peroxide

T1 sequence (Q8NER1 whole entry): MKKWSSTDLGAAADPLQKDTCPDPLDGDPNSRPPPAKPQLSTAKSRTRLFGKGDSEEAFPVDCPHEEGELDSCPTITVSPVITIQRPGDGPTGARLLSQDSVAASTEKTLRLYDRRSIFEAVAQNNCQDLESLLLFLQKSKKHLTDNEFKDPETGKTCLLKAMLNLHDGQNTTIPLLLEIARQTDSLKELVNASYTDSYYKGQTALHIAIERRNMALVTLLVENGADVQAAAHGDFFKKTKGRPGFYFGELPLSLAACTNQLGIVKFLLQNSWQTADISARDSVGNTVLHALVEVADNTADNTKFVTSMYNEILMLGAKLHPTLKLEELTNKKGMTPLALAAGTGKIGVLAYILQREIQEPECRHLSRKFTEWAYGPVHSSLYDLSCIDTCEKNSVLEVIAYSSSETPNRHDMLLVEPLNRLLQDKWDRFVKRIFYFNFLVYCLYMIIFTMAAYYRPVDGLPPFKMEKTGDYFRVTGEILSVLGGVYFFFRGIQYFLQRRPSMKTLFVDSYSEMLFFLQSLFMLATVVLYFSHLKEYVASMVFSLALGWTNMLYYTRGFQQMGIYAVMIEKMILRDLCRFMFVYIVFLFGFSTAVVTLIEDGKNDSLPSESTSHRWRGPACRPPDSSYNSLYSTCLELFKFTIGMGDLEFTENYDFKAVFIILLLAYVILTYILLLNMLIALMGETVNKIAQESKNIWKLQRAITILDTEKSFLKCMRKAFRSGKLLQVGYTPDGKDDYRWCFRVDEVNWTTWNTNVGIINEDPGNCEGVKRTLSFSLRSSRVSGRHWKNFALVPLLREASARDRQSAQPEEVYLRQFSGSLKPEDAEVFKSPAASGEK
human TRPA1, sequence (O75762 whole entry): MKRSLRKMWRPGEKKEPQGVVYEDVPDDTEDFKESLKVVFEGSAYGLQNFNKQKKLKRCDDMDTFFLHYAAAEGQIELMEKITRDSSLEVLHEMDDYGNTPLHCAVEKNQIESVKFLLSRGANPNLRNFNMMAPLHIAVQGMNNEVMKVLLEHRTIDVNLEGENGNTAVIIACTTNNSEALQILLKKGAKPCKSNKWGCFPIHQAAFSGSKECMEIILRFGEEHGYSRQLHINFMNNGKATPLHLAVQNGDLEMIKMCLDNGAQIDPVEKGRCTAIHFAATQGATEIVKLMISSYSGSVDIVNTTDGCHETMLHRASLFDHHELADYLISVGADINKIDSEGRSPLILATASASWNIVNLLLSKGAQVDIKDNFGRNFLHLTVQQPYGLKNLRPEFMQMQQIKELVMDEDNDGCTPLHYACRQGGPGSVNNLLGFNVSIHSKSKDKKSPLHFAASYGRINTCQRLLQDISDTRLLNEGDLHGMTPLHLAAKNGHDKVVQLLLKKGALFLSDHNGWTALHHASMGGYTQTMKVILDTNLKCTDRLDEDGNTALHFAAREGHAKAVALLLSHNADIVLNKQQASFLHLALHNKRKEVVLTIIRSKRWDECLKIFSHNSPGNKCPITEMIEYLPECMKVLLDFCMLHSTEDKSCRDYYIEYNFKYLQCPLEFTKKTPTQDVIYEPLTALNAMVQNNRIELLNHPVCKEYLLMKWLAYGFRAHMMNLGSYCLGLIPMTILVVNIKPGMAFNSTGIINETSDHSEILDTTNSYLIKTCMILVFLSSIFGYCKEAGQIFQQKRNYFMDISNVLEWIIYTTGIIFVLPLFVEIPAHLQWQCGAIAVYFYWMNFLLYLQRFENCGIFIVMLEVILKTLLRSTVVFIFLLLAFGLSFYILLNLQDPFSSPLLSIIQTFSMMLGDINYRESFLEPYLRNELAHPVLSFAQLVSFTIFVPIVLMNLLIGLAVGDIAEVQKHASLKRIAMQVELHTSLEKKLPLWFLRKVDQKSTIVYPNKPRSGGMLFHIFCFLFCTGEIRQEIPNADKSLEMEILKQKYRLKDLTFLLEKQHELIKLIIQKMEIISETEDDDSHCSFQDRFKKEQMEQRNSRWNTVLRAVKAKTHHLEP

SMILES: CCCCCC(CC)OC(C)=O (stereo not drawn) [3-Octyl Acetate]
- inhibition at 400 µM [1, 6]: 90%
- Ca++ counts ([1]; Dose 4000, 500 uM H2O2): 181
- Ca++ counts ([2]; Dose 4000, 350 nM Capsaicin): 12109

SMILES: COC(=O)c1ccccc1N(C)C [Methyl N,N-Dimethylanthranilate]
- inhibition at 100 µM [1, 7]: 60%
- Ca++ counts ([1]; Dose 1000, 500 uM H2O2): 451
- Ca++ counts ([2]; Dose 1000, 350 nM Capsaicin): 15329

SMILES: CCOc1nccnc1CC [2-Ethoxy-3-ethylpyrazine]
- inhibition at 100 µM [1, 7]: 58%
- Ca++ counts ([1]; Dose 1000, 500 uM H2O2): 474
- Ca++ counts ([2]; Dose 1000, 350 nM Capsaicin): 14878

SMILES: CC(C)=CCC/C(C)=C/CC1CCCC1=O (stereo not drawn) [Apritone]
- % inhibition of TRPV1 activation by 500 uM H2O2 ([1]; Dose 1000): 96%
- % Reduction of Hydrogen Peroxide TRPV1 Activation [1, 7]: 96%
- Ca++ counts ([1]; Dose 1000, 500 uM H2O2): 66
- Burning Sensation Rating [3, 8]: 13.3
- Burning Sensation Rating [3, 9]: 5.3
- Burning Sensation Rating [3, 10]: 0.0
- Burning Sensation Rating [3, 11]: 0.0
- Burning Sensation Rating [3, 12]: 27.4
- Burning Sensation Rating [3, 13]: 24.0
- % inhibition of TRPV1 activation by 350 nM Capsaicin ([2]; Dose 1000): 10%
- Ca++ counts ([2]; Dose 1000, 350 nM Capsaicin): 13526
- Burning Sensation [4, 14]: 20.8
- Numbing Sensation [4, 14]: 12.4
- Burning Sensation [4, 15]: 16.0
- Numbing Sensation [4, 15]: 10.1
- Burning Sensation [4, 16]: 8.6
- Numbing Sensation [4, 16]: 6.0
- Burning Sensation [4, 17]: 3.3
- Numbing Sensation [4, 17]: 4.2
- Burning Sensation [4, 18]: 1.3
- Numbing Sensation [4, 18]: 0.8
- Burning Sensation [4, 19]: 21.9
- Numbing Sensation [4, 19]: 11.6
- Burning Sensation ([4]; Initial in Mouth, hydrogen peroxide mouthwash (TABLE 11) with Apritone 200 ppm, Isobornyl Isobutyrate 100 ppm, Dihydrojasmone 6 ppm as named, 10 panelists): 12.6

SMILES: CC/C=C/CC1CCCC1=O (stereo not drawn) [Jasminone B]
- % inhibition of TRPV1 activation by 500 uM H2O2 ([1]; Dose 4000): 51%
- % Reduction of Hydrogen Peroxide TRPV1 Activation [1, 6]: 51%
- Ca++ counts ([1]; Dose 4000, 500 uM H2O2): 903
- % inhibition of TRPV1 activation by 350 nM Capsaicin ([2]; Dose 4000): 2%
- Ca++ counts ([2]; Dose 4000, 350 nM Capsaicin): 11635

SMILES: CCCN(CCC)CCC [Tripropylamine]
- inhibition at 400 µM [1, 6]: 63%
- Ca++ counts ([1]; Dose 4000, 500 uM H2O2): 715
- Ca++ counts ([2]; Dose 4000, 350 nM Capsaicin): 11278

SMILES: CC(=O)OC1=C(C)OC(C)C1=O (stereo not drawn) [Strawberry Furanone Acetate, 4-Acetoxy-2,5-dimethyl-3(2H)-furanone]
- reduction of hydrogen peroxide activation of TRPV1, in words [1]: hydrogen peroxide reduction of TRPV1
- inhibition at 100 µM [1, 7]: 60%
- Ca++ counts ([1]; Dose 1000, 500 uM H2O2): 451
- Ca++ counts ([2]; Dose 1000, 350 nM Capsaicin): 14578
- reduction of hydrogen peroxide activation of TRPA1, in words [5]: reduced hydrogen peroxide activation of TRPA1
- Block of hydrogen peroxide activation of TRPA1 [5, 20]: BLOCK ONLY H2O2/TRPA1
- inhibition at 400 µM ([5]; antagonist 400 μM against 200 μM hydrogen peroxide, read-out: % Reduction of Hydrogen Peroxide TRPA1 Activation): 63%

SMILES: Cn1cccc1C=O [1-Methyl-2-pyrole carboxaldehyde]
- reduction of hydrogen peroxide activation of TRPV1, in words [1]: hydrogen peroxide reduction of TRPV1
- % inhibition of TRPV1 activation by 500 uM H2O2 ([1]; Dose 4000): 79%
- % Reduction of Hydrogen Peroxide TRPV1 Activation [1, 6]: 79%
- Ca++ counts ([1]; Dose 4000, 500 uM H2O2): 380
- % inhibition of TRPV1 activation by 350 nM Capsaicin ([2]; Dose 4000): 3%
- Ca++ counts ([2]; Dose 4000, 350 nM Capsaicin): 11516
- reduction of hydrogen peroxide activation of TRPA1, in words [5]: reduced hydrogen peroxide activation of TRPA1
- Block of hydrogen peroxide activation of TRPA1 [5, 20]: BLOCK ONLY H2O2/TRPA1
- % Reduction of Hydrogen Peroxide TRPA1 Activation ([5]; antagonist 400 μM against 200 μM hydrogen peroxide): 42%

SMILES: CC(C)=CC1CC(C)CCO1 (stereo not drawn) [Tetrahydro-4-methyl-2-(2-methyl-1-propenyl)-2H pyran]
- inhibition at 400 µM [1, 6]: 53%
- Ca++ counts ([1]; Dose 4000, 500 uM H2O2): 866
- Ca++ counts ([2]; Dose 4000, 350 nM Capsaicin): 11041

SMILES: CCC(C)COC(=O)CC(C)C (stereo not drawn) [2-Methylbutyl isovalerate]
- inhibition at 400 µM [1, 6]: 79%
- Ca++ counts ([1]; Dose 4000, 500 uM H2O2): 380
- Ca++ counts ([2]; Dose 4000, 350 nM Capsaicin): 11278

SMILES: CCCCCCCC1CC(C)OC1=O (stereo not drawn) [α-heptyl-γ-valerolactone]
- Burning Sensation Rating [3, 8]: 13.8
- Burning Sensation Rating [3, 9]: 1.3
- Burning Sensation Rating [3, 10]: 0.0
- Burning Sensation Rating [3, 11]: 0.0
- Burning Sensation Rating [3, 12]: 25.4
- Burning Sensation Rating [3, 13]: 21.5

SMILES: CC(CC=O)CCCC(C)(C)O (stereo not drawn) [Hydroxycitronellal]
- inhibition at 100 µM [1, 7]: 62%
- Ca++ counts ([1]; Dose 1000, 500 uM H2O2): 627
- Ca++ counts ([2]; Dose 1000, 350 nM Capsaicin): 14728
- Block of hydrogen peroxide activation of TRPA1 ([5]; 100 μM antagonist vs 500 μM hydrogen peroxide): BLOCK ONLY H2O2/TRPA1
- Average Ca++ Counts ([5]; compound 100 μM against 200 μM hydrogen peroxide, Sets 1-4): 6313.0 Counts
- inhibition at 100 µM ([5]; compound 100 μM against 200 μM hydrogen peroxide, Sets 1-4, read-out: % Reduction of Hydrogen Peroxide TRPA1 Activation): 40.4%

SMILES: CCCCCC=CCC1CCCC1=O (stereo not drawn) [Octenyl Cyclopentanone]
- % inhibition of TRPV1 activation by 500 uM H2O2 ([1]; Dose 4000): 50%
- % Reduction of Hydrogen Peroxide TRPV1 Activation [1, 6]: 50%
- Ca++ counts ([1]; Dose 4000, 500 uM H2O2): 922
- % inhibition of TRPV1 activation by 350 nM Capsaicin ([2]; Dose 4000): 1%
- Ca++ counts ([2]; Dose 4000, 350 nM Capsaicin): 9378

SMILES: CCCCOC(=O)C(C)C [Butyl Isobutyrate]
- inhibition at 400 µM [1, 6]: 58%
- Ca++ counts ([1]; Dose 4000, 500 uM H2O2): 774
- Ca++ counts ([2]; Dose 4000, 350 nM Capsaicin): 11278

SMILES: CC1=CC(=O)C(C(C)C)CC1 [L-Piperiton]
- % inhibition of TRPV1 activation by 500 uM H2O2 ([1]; Dose 1000): 58%
- Ca++ counts ([1]; Dose 1000, 500 uM H2O2): 361
- % inhibition of TRPV1 activation by 350 nM Capsaicin ([2]; Dose 1000): 12%
- Ca++ counts ([2]; Dose 1000, 350 nM Capsaicin): 13225
